From patent US9556201B2, “Bicyclic pyridines and analogs as sirtuin modulators” (GLAXOSMITHKLINE LLC, priority 2009, dated 2017)

Target: T1, SIRT1 (Homo sapiens, UniProt Q96EB6)
T1 sequence (Q96EB6 1-747): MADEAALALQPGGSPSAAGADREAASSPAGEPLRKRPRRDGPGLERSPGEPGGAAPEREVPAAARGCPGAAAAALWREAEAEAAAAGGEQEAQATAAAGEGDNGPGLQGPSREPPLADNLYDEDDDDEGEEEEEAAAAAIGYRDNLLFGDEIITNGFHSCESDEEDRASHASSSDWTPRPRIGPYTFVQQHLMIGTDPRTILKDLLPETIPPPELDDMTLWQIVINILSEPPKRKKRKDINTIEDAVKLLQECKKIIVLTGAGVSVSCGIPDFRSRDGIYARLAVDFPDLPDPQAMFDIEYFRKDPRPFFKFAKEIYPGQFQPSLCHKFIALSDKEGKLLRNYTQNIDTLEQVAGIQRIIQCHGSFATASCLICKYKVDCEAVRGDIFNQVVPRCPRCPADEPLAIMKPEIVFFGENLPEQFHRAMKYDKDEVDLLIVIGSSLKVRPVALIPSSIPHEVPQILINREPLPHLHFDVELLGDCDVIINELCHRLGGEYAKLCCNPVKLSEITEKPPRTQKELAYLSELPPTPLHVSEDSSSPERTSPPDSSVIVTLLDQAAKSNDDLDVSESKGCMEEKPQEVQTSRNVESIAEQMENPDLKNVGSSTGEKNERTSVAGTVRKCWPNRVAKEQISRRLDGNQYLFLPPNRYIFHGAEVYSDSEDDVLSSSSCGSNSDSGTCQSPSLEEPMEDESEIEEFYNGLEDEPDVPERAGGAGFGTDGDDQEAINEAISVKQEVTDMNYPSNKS
Assay: Mass spectrometry based assay to identify modulators of SIRT1 activity (deacetylation of p53-based acetylated peptide substrate)
Assay type: biochemical
Conditions: for Emax: 25 min, read-out: % FOLD ACT. (percent maximum fold activation); for Emax / EC1.5: SIRT1 activation
In short: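 Deacetylation of a modified p53 acetyl-lysine peptide ([…], 5TMR-labelled, Nle for Met) by 10 nM N-His SIRT1 with 120 μM βNAD+, pH 8, 25 min, 25 °C. Substrate and product masses measured by MS after formic acid quench; nicotinamide defines maximal inhibition.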

With `O=C(Nc1ccccn1)N1CCCCc2ccc(-c3cccc(C(F)(F)F)c3)nc21` [Compound 812] the EC1.5 (concentration giving 1.5-fold activation) was 1 to 25 µM and the Emax was ≤ 200%.
With `Cc1cc(NC(=O)N2CCOc3ccc(-c4c(C)noc4C)nc32)cc(C)n1` [Compound 573] the Emax was > 200% and the EC1.5 was “B (EC1.5 1-25 μM)”.
For `Cc1csc(NC(=O)N2CCOc3ncc(-c4cccc(C(F)(F)F)c4)nc32)n1` [Compound 740, N-(4-methylthiazol-2-yl)-6-(3-(trifluoromethyl)phenyl)-2H-pyrazino[2,3-b][1,4]oxazine-4(3H)-carboxamide], the EC1.5 (concentration giving 1.5-fold activation) was > 25 µM and the Emax was ≤ 200%.
In the case of `Cc1ccc(-c2ccc3c(n2)N(C(=O)Nc2ccncn2)CCCO3)cn1` [Compound 681], the Emax is reported as ≤ 200% and the EC1.5 is reported as “C (EC1.5>25 μM)”.
With `O=C1CCCN(C(=O)Nc2ccncc2)c2nc(-c3cccc(Cl)c3)ccc21` [Compound 756] the EC1.5 (concentration giving 1.5-fold activation) was 1 to 25 µM and the Emax was > 200%.
In the case of `O=C1CCN(C(=O)Nc2ccc(F)cn2)c2nc(-c3cccc(C(F)(F)F)c3)ccc21` [Compound 730], the EC1.5 (concentration giving 1.5-fold activation) is reported as 1 to 25 µM and the Emax is reported as ≤ 200%.
In the case of `Cc1cc(C)nc(NC(=O)N2CCCOc3ccc(-c4cccc(Cl)c4)nc32)c1` [Compound 857], the EC1.5 (concentration giving 1.5-fold activation) is reported as > 25 µM and the Emax is reported as ≤ 200%.
With `Cc1csc(NC(=O)N2CCCC(F)(F)c3ccc(-c4cccc(Cl)c4)nc32)n1` [Compound 779] the EC1.5 (concentration giving 1.5-fold activation) was > 25 µM and the Emax was ≤ 200%.
`O=C(Nc1ncccn1)N1CCCOc2ccc(-c3cccc(C(F)(F)F)c3)nc21` [Compound 643] was tested, and the Emax was > 200% and the EC1.5 was “B (EC1.5 1-25 μM)”.
In the case of `O=C(Nc1ccncc1)N1CCCOc2ccc(-c3cccc(C(F)(F)F)c3)nc21` [Compound 558, N-(pyridin-4-yl)-7-(3-(trifluoromethyl)phenyl)-3,4-dihydropyrido[3,2-b][1,4]oxazepine-5(2H)-carboxamide], the Emax is reported as > 200% and the EC1.5 is reported as “B (EC1.5 1-25 μM)”.
`O=C(Nc1ccncc1)N1CCOc2cnc(-c3cccc(N4CCOCC4)c3)nc21` [Compound 721] was tested, and the EC1.5 (concentration giving 1.5-fold activation) was 1 to 25 µM and the Emax was > 200%.
In the case of `CC1(C)CCN(C(=O)Nc2ccncc2)c2nc(-c3cccc(Cl)c3)ccc2C1=O` [Compound 832], the EC1.5 (concentration giving 1.5-fold activation) is reported as 1 to 25 µM and the Emax is reported as ≤ 200%.
For `O=C(Nc1ccncc1)N1CCCC(F)(F)c2ccc(-c3cccc(Cl)c3)nc21` [Compound 770], the EC1.5 (concentration giving 1.5-fold activation) was > 25 µM and the Emax was ≤ 200%.
In the case of `CC1(C)CCN(C(=O)Nc2cncnc2)c2nc(-c3cccc(C(F)(F)F)c3)ccc21` [Compound 835], the EC1.5 (concentration giving 1.5-fold activation) is reported as 1 to 25 µM and the Emax is reported as > 200%.
With `O=C(Nc1ncc(CN2CCCC2)s1)N1CCOc2ccc(-c3cccc(C(F)(F)F)c3)nc21` [Compound 505, N-(5-(pyrrolidin-1-ylmethyl)thiazol-2-yl)-6-(3-(trifluoromethyl)phenyl)-2H-pyrido[3,2-b][1,4]oxazine-4(3H)-carboxamide] the Emax was ≤ 200% and the EC1.5 was “C (EC1.5>25 μM)”.
With `O=C(Nc1ncccn1)N1CCCc2ccc(-c3cccc(C(F)(F)F)c3)nc21` [Compound 666] the Emax was > 200% and the EC1.5 was “A (EC1.5<1.0 μM)”.
With `O=C(Nc1nccs1)N1CCOc2ccc(-c3cccc(C(F)(F)F)c3)nc21` [Compound 500, N-(thiazol-2-yl)-6-(3-(trifluoromethyl)phenyl)-2H-pyrido[3,2-b][1,4]oxazine-4(3H)-carboxamide] the Emax was > 200% and the EC1.5 was “A (EC1.5<1.0 μM)”.
`Cc1csc(NC(=O)N2CC(=O)N(C)c3ccc(-c4cccc(C(F)(F)F)c4)nc32)n1` [Compound 521] was tested, and the Emax was ≤ 200% and the EC1.5 was “B (EC1.5 1-25 μM)”.
With `Cc1cc(-c2ccc3c(n2)N(C(=O)Nc2cc(C)nc(C)c2)CCCO3)ccn1` [Compound 657] the Emax was > 200% and the EC1.5 was “B (EC1.5 1-25 μM)”.
For `O=C(Nc1ccncc1)N1CCOc2ccc(-c3cccc(F)c3)nc21` [Compound 542], the Emax was > 200% and the EC1.5 was “B (EC1.5 1-25 μM)”.
With `CCN1CCCN(C(=O)Nc2cccnc2)c2nc(-c3cccc(Cl)c3)ccc21` [Compound 789, 7-(3-chlorophenyl)-1-ethyl-N-(pyridin-3-yl)-3,4-dihydro-1H-pyrido[2,3-b][1,4]diazepine-5(2H)-carboxamide] the EC1.5 (concentration giving 1.5-fold activation) was 1 to 25 µM and the Emax was > 200%.
In the case of `CC1CCN(C(=O)Nc2ccccn2)c2nc(-c3cccc(C(F)(F)F)c3)ccc21` (centres unmarked) [Compound 785, 4-methyl-N-(pyridin-2-yl)-7-(3-(trifluoromethyl)phenyl)-3,4-dihydro-1,8-naphthyridine-1(2H)-carboxamide], the EC1.5 (concentration giving 1.5-fold activation) is reported as < 1 µM and the Emax is reported as > 200%.
`Cc1cc(-c2cccc(Cl)c2)nc2c1OCCN2C(=O)Nc1ccncc1F` [Compound 687] was tested, and the Emax was > 200% and the EC1.5 was “A (EC1.5<1.0 μM)”.
For `O=C1CCCN(C(=O)Nc2ccncc2)c2nc(-c3cccc(C(F)(F)F)c3)ccc21` [Compound 828], the EC1.5 (concentration giving 1.5-fold activation) was 1 to 25 µM and the Emax was > 200%.
`O=C(Nc1ccncc1)N1CCCCc2ccc(-c3cccc(C(F)(F)F)c3)nc21` [Compound 810] was tested, and the EC1.5 (concentration giving 1.5-fold activation) was 1 to 25 µM and the Emax was > 200%.
`CN(C)c1nc(-c2cccc(F)c2)nc2c1OCCN2C(=O)Nc1ccncc1` [Compound 736, 4-(dimethylamino)-2-(3-fluorophenyl)-N-(pyridin-4-yl)-6H-pyrimido[5,4-b][1,4]oxazine-8(7H)-carboxamide] was tested, and the EC1.5 (concentration giving 1.5-fold activation) was > 25 µM and the Emax was ≤ 200%.
With `O=C(Nc1ncccn1)N1CCCc2ccc(-c3cccc(Cl)c3)nc21` [Compound 667] the Emax was > 200% and the EC1.5 was “B (EC1.5 1-25 μM)”.
With `CN1C(=O)CN(C(=O)Nc2cncnc2)c2nc(-c3cccc(C(F)(F)F)c3)ccc21` [Compound 527] the Emax was ≤ 200% and the EC1.5 was “B (EC1.5 1-25 μM)”.
With `Cc1ccc(-c2ccc3c(n2)N(C(=O)Nc2cc(C)nc(C)c2)CCCO3)cn1` [Compound 637] the Emax was > 200% and the EC1.5 was “B (EC1.5 1-25 μM)”.
In the case of `O=C(Nc1ccncc1F)N1CCC(F)(F)c2ccc(-c3cccc(C(F)(F)F)c3)nc21` [Compound 746], the EC1.5 (concentration giving 1.5-fold activation) is reported as 1 to 25 µM and the Emax is reported as ≤ 200%.
In the case of `Cc1noc(NC(=O)N2CCOc3ccc(-c4cccc(C(F)(F)F)c4)nc32)c1C` [Compound 509], the Emax is reported as > 200% and the EC1.5 is reported as “B (EC1.5 1-25 μM)”.
For `Cc1ccnc(NC(=O)N2CCCOc3ccc(-c4cccc(Cl)c4)nc32)c1` [Compound 763], the EC1.5 (concentration giving 1.5-fold activation) was 1 to 25 µM and the Emax was > 200%.
With `Cc1nn(C)c(C)c1NC(=O)N1CCCOc2ccc(-c3cccc(Cl)c3)nc21` [Compound 879] the EC1.5 (concentration giving 1.5-fold activation) was > 25 µM and the Emax was ≤ 200%.
In the case of `Cc1cnccc1NC(=O)N1CCC(C)c2ccc(-c3cccc(C(F)(F)F)c3)nc21` (centres unmarked) [Compound 784], the EC1.5 (concentration giving 1.5-fold activation) is reported as 1 to 25 µM and the Emax is reported as > 200%.
With `Cc1cncc(NC(=O)N2CCCOc3ccc(-c4cccc(N5CCCC5)c4)nc32)c1` [Compound 610] the Emax was > 200% and the EC1.5 was “B (EC1.5 1-25 μM)”.
For `Cc1cc(-c2cccc(Cl)c2)nc2c1OCCN2C(=O)Nc1ccncc1` [Compound 686], the Emax was > 200% and the EC1.5 was “A (EC1.5<1.0 μM)”.
For `O=C(Nc1ccncc1)N1CCCOc2ccc(-c3cccc(Cl)c3)nc21` [Compound 856], the EC1.5 (concentration giving 1.5-fold activation) was 1 to 25 µM and the Emax was > 200%.
With `CN1CCN(C(=O)NC2CCOC2=O)c2nc(-c3cccc(C(F)(F)F)c3)ccc21` (centres unmarked) [Compound 540] the Emax was ≤ 200% and the EC1.5 was “C (EC1.5>25 μM)”.
For `O=C1CCCN(C(=O)Nc2cccnc2)c2nc(-c3cccc(Cl)c3)ccc21` [Compound 747, 2-(3-chlorophenyl)-5-oxo-N-(pyridin-3-yl)-7,8-dihydro-5H-pyrido[2,3-b]azepine-9(6H)-carboxamide], the EC1.5 (concentration giving 1.5-fold activation) was 1 to 25 µM and the Emax was > 200%.
In the case of `Cc1cc(NC(=O)N2CCOc3c(N4CCOCC4)nc(-c4cccc(F)c4)nc32)cc(C)n1` [Compound 739], the EC1.5 (concentration giving 1.5-fold activation) is reported as 1 to 25 µM and the Emax is reported as ≤ 200%.
In the case of `CC1(C)CCN(C(=O)Nc2cc(OCC(O)CO)ccn2)c2nc(-c3cccc(C(F)(F)F)c3)ccc21` (centres unmarked) [Compound 846], the EC1.5 (concentration giving 1.5-fold activation) is reported as < 1 µM and the Emax is reported as > 200%.
For `CCN1C(=O)CCN(C(=O)Nc2ccc(F)cn2)c2nc(-c3cccc(Cl)c3)ccc21` [Compound 791], the EC1.5 (concentration giving 1.5-fold activation) was > 25 µM and the Emax was ≤ 200%.
For `Cc1cnccc1NC(=O)N1CCCOc2ccc(-c3cccc(Cl)c3)nc21` [Compound 855], the EC1.5 (concentration giving 1.5-fold activation) was 1 to 25 µM and the Emax was ≤ 200%.
With `O=C(Nc1cccc(OCC(O)CO)c1)N1CCC(F)(F)c2ccc(-c3cccc(C(F)(F)F)c3)nc21` (centres unmarked) [Compound 841] the EC1.5 (concentration giving 1.5-fold activation) was < 1 µM and the Emax was > 200%.
In the case of `CC1(C)CN(C(=O)Nc2cncc(F)c2)c2nc(-c3cccc(F)c3)ccc2O1` [Compound 621], the Emax is reported as > 200% and the EC1.5 is reported as “B (EC1.5 1-25 μM)”.
For `O=C(Nc1ccncc1F)N1CCOc2ncc(-c3cccc(C(F)(F)F)c3)nc21` [Compound 724], the EC1.5 (concentration giving 1.5-fold activation) was 1 to 25 µM and the Emax was > 200%.
